Reference: patent EP2388012A1 (Roehampton University, priority 2010, dated 2011)
Where no end group is shown, it is not given here. The star is where a group is joined. Biotin = O=C1N[C@H]2[C@H](CS[C@H]2CCCCC(=O)*)N1

Legend:
[1] = tested on: biotinylated Aß 1-42 to the Kissorphin-6 peptide; type: binding, human
[2] = tested on: biotinylated PrP 106-126 to the Kissorphin-6 peptide
[3] = tested on: biotinylated IAPP 1-37 to the Kissorphin-6 peptide; type: binding, human
[4] = target: GPR-54 G-protein coupled receptor (mouse) (UniProt Q91V45); assay: cell-based or functional assay
[5] = tested on: human neuroblastoma SH-SY5Y cell line; type: cell-based
[6] = tested on: mouse LHRH secreting cell line (GT1); type: cell-based
Aß 25-35 fibrils = type: binding, human
IAPP 1-37 fibrils = type: binding, human
Aß 1-42 fibrils = type: binding, human
Amyloid-Bri fibrils = type: binding, human
Amyloid-Dan fibrils = type: binding, human
IAPP 20-29 fibrils = type: binding, human
IAPP 1-37 = type: binding, human; details: 4°C 16 hours
Aß 1-42 = type: binding, human; details: 4°C 16 hours
[7] = target: T1, GPR-54 G-protein coupled receptor (mouse), Q91V45; assay: cell-based or functional assay
T1 chain: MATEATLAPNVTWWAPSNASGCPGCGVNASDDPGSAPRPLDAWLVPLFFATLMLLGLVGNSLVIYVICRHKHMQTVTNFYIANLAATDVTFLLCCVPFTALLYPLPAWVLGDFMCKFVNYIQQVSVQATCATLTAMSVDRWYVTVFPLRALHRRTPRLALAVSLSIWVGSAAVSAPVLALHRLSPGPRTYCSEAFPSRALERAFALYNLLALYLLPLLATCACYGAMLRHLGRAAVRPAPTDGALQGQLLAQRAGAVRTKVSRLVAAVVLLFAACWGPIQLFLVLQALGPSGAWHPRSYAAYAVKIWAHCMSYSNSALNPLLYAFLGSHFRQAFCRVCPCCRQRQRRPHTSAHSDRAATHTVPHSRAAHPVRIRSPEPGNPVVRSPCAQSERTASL

Molecule: Aß 31-35: Aß fragment, the shortest cytotoxic form of Aß (IIGLM; Amyloid-beta protein 40; UniProt P05067 702-706, looked up, fragment)
- effect on binding of biotinylated Aß 1-42 to the Kissorphin-6 peptide [1]: no effect
- effect on binding of biotinylated PrP 106-126 to the Kissorphin-6 peptide [2]: no effect
- effect on binding of biotinylated IAPP 1-37 to the Kissorphin-6 peptide [3]: no effect

Molecule: Aß 25-35: Aß fragment, functional neurotoxic domain (GSNKGAIIGLM)
- effect on binding of biotinylated Aß 1-42 to the Kissorphin-6 peptide [1]: strongly inhibited
- effect on binding of biotinylated PrP 106-126 to the Kissorphin-6 peptide [2]: strongly inhibited
- effect on binding of biotinylated IAPP 1-37 to the Kissorphin-6 peptide [3]: strongly inhibited

Molecule: Kisspeptin-10 (peptide)
- LHRH release from mouse GT1 cells [4]: 4 fold

Molecule: Aß 1-28: Aß fragment, unlabelled competitor
- effect on binding of biotinylated Aß 1-42 to the Kissorphin-6 peptide [1]: no effect
- effect on binding of biotinylated PrP 106-126 to the Kissorphin-6 peptide [2]: no effect
- effect on binding of biotinylated IAPP 1-37 to the Kissorphin-6 peptide [3]: no effect

Molecule: Kissorphin-6 (3-6): shorter sequence, SEQ ID No. 11, residues 3-6 of Kissorphin-6 (WNSF)
- effect on toxicity of Aß 1-42 [5]: significantly inhibited
- effect on toxicity of Aß 25-35 [5]: significantly inhibited
- effect on toxicity of IAPP 1-37 [5]: no effect
- effect on toxicity of IAPP 20-29 [5]: no effect
- effect on toxicity of PrP 106-126 [5]: no effect
- effect on toxicity of PrP 118-135 [5]: no effect
- effect on toxicity of the Amyloid-Bri peptide [5]: unaffected
- effect on toxicity of the Amyloid-Dan peptide [5]: unaffected
- effect on Kisspeptin-10 stimulated release of immunoreactive LHRH [6]: no significant effect
- effect on Kisspeptin-13 stimulated release of immunoreactive LHRH [6]: no significant effect

Molecule: Biotinylated Kisspeptin-54: N-terminally Biotinylated Kisspeptin-54, purchased from Bachem or Alpha Diagnostics (Biotin-GTSLSPPPESSGSPQQPGLSAPHSRQIPAPQGAVLVQREKDLPNYNWNSFGLRF; ends and bridges not checked; UniProt Q15726 68-121, looked up)
- binding to plates coated with PrP 118-135 fibrils (PrP 118-135 fibrils): bound
- binding to plates coated with Aß 25-35 fibrils (Aß 25-35 fibrils): bound
- binding to plates coated with IAPP 1-37 fibrils (IAPP 1-37 fibrils): bound
- binding to plates coated with Aß 1-42 fibrils (Aß 1-42 fibrils): bound
- binding to Amyloid-Bri fibrils (Amyloid-Bri fibrils): No binding
- binding to plates coated with PrP 106-126 fibrils (PrP 106-126 fibrils): bound
- binding to Amyloid-Dan fibrils (Amyloid-Dan fibrils): No binding
- binding to plates coated with IAPP 20-29 fibrils (IAPP 20-29 fibrils): bound

Molecule: Aß 29-40: Aß fragment, unlabelled competitor (GAIIGLMVGGVV; Amyloid-beta protein 40; UniProt P05067 700-711, looked up, fragment)
- effect on binding of biotinylated Aß 1-42 to the Kissorphin-6 peptide [1]: strongly inhibited
- effect on binding of biotinylated PrP 106-126 to the Kissorphin-6 peptide [2]: strongly inhibited
- effect on binding of biotinylated IAPP 1-37 to the Kissorphin-6 peptide [3]: strongly inhibited

Molecule: Kisspeptin-54: the 54 amino acid form of Kisspeptin, peptide derived from the Kiss1 gene, ligand for GPR-54 (SEQ ID No. 1)
- binding of biotinylated IAPP 1-37 to peptide coated plates (IAPP 1-37): significant binding
- effect on toxicity of Aß 1-42 [5]: significantly inhibited
- effect on toxicity of Aß 25-35 [5]: significantly inhibited
- effect on toxicity of IAPP 1-37 [5]: significantly inhibited
- effect on toxicity of IAPP 20-29 [5]: significantly inhibited
- effect on toxicity of PrP 106-126 [5]: significantly inhibited
- effect on toxicity of PrP 118-135 [5]: significantly inhibited
- effect on toxicity of the Amyloid-Bri peptide [5]: unaffected
- effect on toxicity of the Amyloid-Dan peptide [5]: unaffected
- binding of biotinylated Aß 1-42 to peptide coated plates (Aß 1-42): significant binding
- binding of biotinylated PrP 106-126 to peptide coated plates (PrP 106-126): significant binding

Molecule: Biotinylated Kisspeptin-10: N-terminally Biotinylated Kisspeptin-10, purchased from Bachem or Alpha Diagnostics
- binding to plates coated with PrP 118-135 fibrils (PrP 118-135 fibrils): bound
- binding to plates coated with Aß 25-35 fibrils (Aß 25-35 fibrils): bound
- binding to plates coated with IAPP 1-37 fibrils (IAPP 1-37 fibrils): bound
- binding to plates coated with Aß 1-42 fibrils (Aß 1-42 fibrils): bound
- binding to Amyloid-Bri fibrils (Amyloid-Bri fibrils): No binding
- binding to plates coated with PrP 106-126 fibrils (PrP 106-126 fibrils): bound
- binding to Amyloid-Dan fibrils (Amyloid-Dan fibrils): No binding
- binding to plates coated with IAPP 20-29 fibrils (IAPP 20-29 fibrils): bound

Molecule: Kisspeptin-54 (27-54): fragment 27-54 of Kisspeptin-54 (IPAPQGAVLVQREKDLPNYNWNSFGLRF)
- binding of biotinylated IAPP 1-37 to peptide coated plates (IAPP 1-37): significant binding
- effect on toxicity of Aß 1-42 [5]: significantly inhibited
- effect on toxicity of Aß 25-35 [5]: significantly inhibited
- effect on toxicity of IAPP 1-37 [5]: significantly inhibited
- effect on toxicity of IAPP 20-29 [5]: significantly inhibited
- effect on toxicity of PrP 106-126 [5]: significantly inhibited
- effect on toxicity of PrP 118-135 [5]: significantly inhibited
- effect on toxicity of the Amyloid-Bri peptide [5]: unaffected
- effect on toxicity of the Amyloid-Dan peptide [5]: unaffected
- binding of biotinylated Aß 1-42 to peptide coated plates (Aß 1-42): significant binding
- binding of biotinylated PrP 106-126 to peptide coated plates (PrP 106-126): significant binding

B1: IAPP 1-37 (peptide)
peptide: KCNTATCATQRLANFLVHSSNNFGAILSSTNVGSNTY
modifications: not checked
- Kd (Kissorphin-6 (human)): 11.6 nM

B2: PrP 106-126 (peptide)
peptide: KTNMKHMAGAAAAGAVVGGLG
modifications: not checked
- Kd (Kissorphin-6 (human)): 34.2 nM

B3: Kisspeptin-13, Q15726 109-121 (peptide)
peptide: LPNYNWNSFGLRF
modifications: not checked
- LHRH release from mouse GT1 cells [7]: 4 fold
